Test results published in PubChem BioAssay AID1259407 (Chemical Carcinogenesis Research Information System (CCRIS), 2018).
Activity calls are given as the source filed them. The rule behind the calls is not given here.

System: CCRIS mutagenicity, Ames/micronucleus/aberration tests
Test: CCRIS mutagenicity studies
[1] = Test System: AMES SALMONELLA TYPHIMURIUM, Strain/Indicator: TA98, Metabolic Activation: NONE, Method: STANDARD PLATE
[2] = Test System: AMES SALMONELLA TYPHIMURIUM, Strain/Indicator: TA100, Metabolic Activation: NONE, Method: STANDARD PLATE
[3] = Test System: AMES SALMONELLA TYPHIMURIUM, Strain/Indicator: TA100, Metabolic Activation: RAT, LIVER, S-9, Method: STANDARD PLATE

## Nc1cc(-c2ccncc2)c[nH]c1=O
Test System: AMES SALMONELLA TYPHIMURIUM, Strain/Indicator: TA97, Metabolic Activation: NONE
  mutagenic call: inactive; negative
Test System: AMES SALMONELLA TYPHIMURIUM, Strain/Indicator: TA97, Metabolic Activation: S-9
  mutagenic call: inactive; negative
Test System: AMES SALMONELLA TYPHIMURIUM, Strain/Indicator: TA98, Metabolic Activation: NONE
  mutagenic call: inactive; negative
[1]
  mutagenic call: inactive; negative
Test System: AMES SALMONELLA TYPHIMURIUM, Strain/Indicator: TA98, Metabolic Activation: RAT, LIVER, S-9, Method: STANDARD PLATE
  mutagenic call: inactive; negative
Test System: AMES SALMONELLA TYPHIMURIUM, Strain/Indicator: TA98, Metabolic Activation: S-9
  mutagenic call: inactive; negative
[2]
  mutagenic call: inactive; negative
[3]
  mutagenic call: inactive; negative
Test System: AMES SALMONELLA TYPHIMURIUM, Strain/Indicator: TA100, Metabolic Activation: S-9
  mutagenic call: inactive; negative
Test System: AMES SALMONELLA TYPHIMURIUM, Strain/Indicator: TA102, Metabolic Activation: NONE
  mutagenic call: inactive; negative
Test System: AMES SALMONELLA TYPHIMURIUM, Strain/Indicator: TA102, Metabolic Activation: S-9
  mutagenic call: inactive; negative
Test System: AMES SALMONELLA TYPHIMURIUM, Strain/Indicator: TA1535, Metabolic Activation: NONE, Method: STANDARD PLATE
  mutagenic call: inactive; negative
Test System: AMES SALMONELLA TYPHIMURIUM, Strain/Indicator: TA1535, Metabolic Activation: RAT, LIVER, S-9, Method: STANDARD PLATE
  mutagenic call: inactive; negative
Test System: AMES SALMONELLA TYPHIMURIUM, Strain/Indicator: TA1537, Metabolic Activation: NONE, Method: STANDARD PLATE
  mutagenic call: inactive; negative
Test System: AMES SALMONELLA TYPHIMURIUM, Strain/Indicator: TA1537, Metabolic Activation: RAT, LIVER, S-9, Method: STANDARD PLATE
  mutagenic call: inactive; negative
Test System: AMES SALMONELLA TYPHIMURIUM, Strain/Indicator: TA1538, Metabolic Activation: NONE, Method: STANDARD PLATE
  mutagenic call: inactive; negative
Test System: AMES SALMONELLA TYPHIMURIUM, Strain/Indicator: TA1538, Metabolic Activation: RAT, LIVER, S-9, Method: STANDARD PLATE
  mutagenic call: inactive; negative

## CCCC(Cl)C(=O)S (stereo unspecified)
Test System: AMES SALMONELLA TYPHIMURIUM, Strain/Indicator: TA1535, Metabolic Activation: NONE
  mutagenic call: active; positive

## CC(C)(S)[C@@H](N)C(=O)O
Test System: AMES SALMONELLA TYPHIMURIUM, Strain/Indicator: TA92, Metabolic Activation: HOMOGENIZED V-79, Method: STANDARD PLATE
  mutagenic call: active; positive
Test System: AMES SALMONELLA TYPHIMURIUM, Strain/Indicator: TA92, Metabolic Activation: NONE, Method: STANDARD PLATE
  mutagenic call: active; positive
Test System: AMES SALMONELLA TYPHIMURIUM, Strain/Indicator: TA92, Metabolic Activation: RAT, KIDNEY, S-9, Method: STANDARD PLATE
  mutagenic call: active; positive
Test System: AMES SALMONELLA TYPHIMURIUM, Strain/Indicator: TA92, Metabolic Activation: RAT, LIVER, S-9, Method: STANDARD PLATE
  mutagenic call: active; positive
[2]
  mutagenic call: active; positive
Test System: AMES SALMONELLA TYPHIMURIUM, Strain/Indicator: TA100, Metabolic Activation: RAT, KIDNEY, S-9, Method: STANDARD PLATE
  mutagenic call: active; positive
[3]
  mutagenic call: active; positive
Test System: AMES SALMONELLA TYPHIMURIUM, Strain/Indicator: TA102, Metabolic Activation: NONE, Method: STANDARD PLATE
  mutagenic call: active; positive
Test System: CHINESE HAMSTER V-79, Strain/Indicator: V-79/6-THIOGUANINE, Metabolic Activation: NONE, Method: STANDARD PLATE
  mutagenic call: inactive; negative

## Cc1ccc2c(C)c3ccccc3c(C)c2c1
[1]
  mutagenic call: active; positive
Test System: AMES SALMONELLA TYPHIMURIUM, Strain/Indicator: TA98, Metabolic Activation: RAT, LIVER, S-9, AROCLOR 1254, Method: STANDARD PLATE
  mutagenic call: active; positive
[2]
  mutagenic call: inactive; negative
Test System: AMES SALMONELLA TYPHIMURIUM, Strain/Indicator: TA100, Metabolic Activation: RAT, LIVER, S-9, AROCLOR 1254, Method: STANDARD PLATE
  mutagenic call: active; positive

## CS(=O)(=O)Nc1ccc([N+](=O)[O-])cc1Oc1ccccc1
End Point: IN VIVO CHROMOSOMAL ABERRATIONS, Test System: BONE MARROW CELLS, Species: MOUSE, Strain/Sex: SWISS/MALE, FEMALE, Route: GAVAGE (TEST MATERIAL SOLVENT: WATER)
  mutagenic call: active; positive (structural changes)

## Nc1c(N=Nc2ccc(-c3ccc(N=Nc4cc(S(=O)(=O)O)c5ccccc5c4N)cc3)cc2)cc(S(=O)(=O)O)c2ccccc12
Test System: AMES SALMONELLA TYPHIMURIUM, Strain/Indicator: TA98, Metabolic Activation: HAMSTER, LIVER, S-9, Method: PREINCUBATION (PRIVAL METHOD)
  mutagenic call: active; positive
[1]
  mutagenic call: inactive; negative
Test System: AMES SALMONELLA TYPHIMURIUM, Strain/Indicator: TA98, Metabolic Activation: RAT, LIVER, S-9, PHENOBARBITAL, Method: STANDARD PLATE
  mutagenic call: inactive; negative
[2]
  mutagenic call: active; positive
Test System: AMES SALMONELLA TYPHIMURIUM, Strain/Indicator: TA100, Metabolic Activation: RAT, LIVER, S-9, PHENOBARBITAL, Method: STANDARD PLATE
  mutagenic call: inactive; negative
Test System: AMES SALMONELLA TYPHIMURIUM, Strain/Indicator: TA1538, Metabolic Activation: HAMSTER, LIVER, S-9, Method: STANDARD PLATE
  mutagenic call: inactive; negative
Test System: AMES SALMONELLA TYPHIMURIUM, Strain/Indicator: TA1538, Metabolic Activation: RAT, LIVER, S-9, AROCLOR 1254, Method: STANDARD PLATE
  mutagenic call: inactive; negative
Test System: Ames Salmonella typhimurium, Strain/Indicator: TA98, Metabolic Activation: Rat, Liver, S-9, Sodium phenobarbitone, Method: Preincubation
  mutagenic call: inactive; negative, test conducted under both aerobic and anaerobic conditions.
Test System: Ames Salmonella typhimurium, Strain/Indicator: TA1538, Metabolic Activation: Rat, Liver, S-9, Sodium phenobarbitone, Method: Preincubation
  mutagenic call: inactive; negative, test conducted under both aerobic and anaerobic conditions.
